Test [1] has as its target T1, human P2X2/3 receptor (Homo sapiens, UniProt P56373+Q9UBL9).
T1 construct: expressed in transfected cells; host or cells: CHO-K1
T1 sequence (Q9UBL9 1-471): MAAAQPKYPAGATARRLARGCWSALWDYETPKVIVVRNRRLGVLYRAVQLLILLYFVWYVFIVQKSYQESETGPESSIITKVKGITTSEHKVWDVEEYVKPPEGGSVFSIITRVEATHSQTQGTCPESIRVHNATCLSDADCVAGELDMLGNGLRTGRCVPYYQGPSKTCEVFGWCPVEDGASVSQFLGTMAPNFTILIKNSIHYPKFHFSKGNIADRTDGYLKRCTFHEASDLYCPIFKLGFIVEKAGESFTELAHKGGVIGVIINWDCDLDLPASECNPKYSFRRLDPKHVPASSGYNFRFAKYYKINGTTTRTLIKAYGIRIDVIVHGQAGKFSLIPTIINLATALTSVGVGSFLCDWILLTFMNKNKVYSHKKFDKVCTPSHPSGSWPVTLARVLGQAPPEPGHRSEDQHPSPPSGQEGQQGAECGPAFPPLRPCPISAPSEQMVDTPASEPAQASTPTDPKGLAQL
T1 sequence (P56373 1-397): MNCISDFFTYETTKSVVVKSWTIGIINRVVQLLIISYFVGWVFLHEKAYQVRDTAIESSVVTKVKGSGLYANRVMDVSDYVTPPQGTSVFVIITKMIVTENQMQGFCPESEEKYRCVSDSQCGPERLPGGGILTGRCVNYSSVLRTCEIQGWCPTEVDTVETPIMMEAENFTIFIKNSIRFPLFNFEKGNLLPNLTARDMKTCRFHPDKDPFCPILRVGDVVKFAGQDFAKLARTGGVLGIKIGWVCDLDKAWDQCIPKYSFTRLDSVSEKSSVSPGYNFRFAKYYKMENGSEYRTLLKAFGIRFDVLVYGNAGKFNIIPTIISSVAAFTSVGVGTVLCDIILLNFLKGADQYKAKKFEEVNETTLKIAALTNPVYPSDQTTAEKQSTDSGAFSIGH
Put plainly: P2X2/3 FLIPR (Fluorometric Imaging Plate Reader) assay. It counts as cell-based. The conditions noted are these: transfected CHO-K1 cells; agonist α,β-meATP 5 μM; Fluo-3 calcium fluorescence; read-out: pKi for the P2X2/3 receptor (converted). As for the experimental part:
(§1) CHO-K1 cells were transfected with cloned rat P2X3 or human P2X2/3 receptor subunits and passaged in flasks. 18-24 hours before the FLIPR experiment, cells were released from their flasks, centrifuged, and resuspended in nutrient medium at 2.5×10^5 cells/ml. The cells were aliquoted into black-walled 96-well plates at a density of 50,000 cells/well and incubated overnight in 5% CO2 at 37° C. On the day of the experiment, cells were washed in FLIPR buffer (calcium- and magnesium-free Hank's balanced salt solution, 10 mM HEPES, 2 mM CaCl2, 2.5 mM probenecid; FB). Each well received 100 μl FB and 100 μl of the fluorescent dye Fluo-3 AM [2 μM final conc.]. […]
(§2) Test compounds (dissolved in DMSO at 10 mM and serially diluted with FB) or vehicle were added to each well (25 μl of a 4× solution) and allowed to equilibrate for 20 minutes at room temperature. The plates were then placed in the FLIPR and a baseline fluorescence measurement (excitation at 488 nm and emission at 510-570 nm) was obtained for 10 seconds before a 100 μl/well agonist or vehicle addition. […] Fluorescence was measured for an additional 2 minutes at 1 second intervals after agonist addition. A final addition of ionomycin (5 μM, final concentration) was made to each well of the FLIPR test plate to establish cell viability and maximum fluorescence of dye-bound cytosolic calcium. […]

In test [2] the target is T2, rat P2X3 receptor (Rattus norvegicus, UniProt P49654).
T2 construct: expressed in transfected cells; host or cells: CHO-K1
T2 sequence (P49654 1-397): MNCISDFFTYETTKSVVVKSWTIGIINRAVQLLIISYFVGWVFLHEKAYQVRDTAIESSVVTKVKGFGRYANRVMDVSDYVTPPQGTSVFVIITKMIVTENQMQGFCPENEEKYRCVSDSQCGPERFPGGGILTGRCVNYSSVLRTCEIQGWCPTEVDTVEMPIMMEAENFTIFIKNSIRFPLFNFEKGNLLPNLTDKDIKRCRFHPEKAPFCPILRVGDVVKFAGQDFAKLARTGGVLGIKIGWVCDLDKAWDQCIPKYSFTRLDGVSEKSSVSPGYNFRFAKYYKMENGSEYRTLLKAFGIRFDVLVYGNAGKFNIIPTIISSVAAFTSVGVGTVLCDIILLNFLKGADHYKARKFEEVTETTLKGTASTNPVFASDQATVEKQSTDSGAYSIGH
The experiment in a line: P2X3 FLIPR (Fluorometric Imaging Plate Reader) assay. It counts as cell-based. The conditions noted are these: transfected CHO-K1 cells; agonist α,β-meATP 1 μM; Fluo-3 calcium fluorescence; read-out: pIC50 for the P2X3 receptor (converted). The method, then:
as §1, §2

The structures appear in SMILES notation.

For `Cc1ccc(-c2cc(C(=O)NC(C)c3cnccn3)cc(-n3ccnc3C(C)C)c2)cc1` (centres unmarked) [Compound 27, 5-(2-Isopropyl-imidazol-1-yl)-4′-methyl-biphenyl-3-carboxylic acid (1-pyrazin-2-yl-ethyl)-amide], the Ki in test [1] is roughly 46.8 nM. In the case of `CCc1nccn1-c1cc(C(=O)NCc2cnc(C)cn2)cc(-c2ccc(C)cn2)c1` [Compound 29, 3-(2-Ethyl-imidazol-1-yl)-N-(5-methyl-pyrazrn-2-ylmethyl)-5-(5-methyl-pyridin-2-yl)-benzamide], the IC50 in test [2] was roughly 2.82 nM.

Values taken from patent US7858654B2, “Imidazole-substituted arylamides as P2X3 and P2X2/3 antagonists” (Roche Palo Alto LLC, priority 2007, dated 2010).
